Results taken from patent publication US9670219B2, “Tetrahydrooxepinopyridine compound” (ASTELLAS PHARMA INC., priority 2015, dated 2017).
Structures can show the parent of a compound that is named as a salt.

Columns and labels:
human α7 nACh receptor [1] = molecular target: T1, human α7 nACh receptor (Homo sapiens, UniProt P36544); assay: Evaluation for human α7 nACh receptor using FLIPR (intracellular calcium response, PAM activity); type: cell-based; conditions: for Max: maximum response of test drug with agonist PNU-282987, relative to maximum response of PNU-120596 = 100%; for EC20: test drug concentration giving 20% response, maximum response of PNU-120596 with agonist PNU-282987 (0.6 μM) = 100%, HEK293 cells co-expressing human α7 nACh receptor/rat RIC3
T1 construct: expressed in transfected cells; host or cells: HEK293 cells (ATCC CRL-1573), transient co-transfection by electroporation with rat RIC3 (NM_001115045.3)
Experimental: Assay buffer: HBSS buffer containing 1.25 mM probenecid.
The PAM activity of a test drug was evaluated in terms of Ca^2+ dye-based fluorescence intensity for an intracellular calcium response in the presence of an α7 nACh receptor-selective agonist PNU-282987 (CAS registry number: 123464-89-1, Tocris) using a FLIPR tetra (Molecular Devices).
In the case where a concentration-response curve has been obtained in which the logarithm of a concentration of a test drug is on the abscissa and the ratio of a response (hereinafter, also referred to as calcium response) is on the ordinate, this test drug has been determined to have a PAM activity.
In this test, the agonist (PNU-282987) elicited a calcium response only in the presence of PAM (PNU-120596).
The coding sequence of a human α7 nACh receptor (accession number: NM_000746.5) was subcloned into a pCEP4 vector (Life Technologies). The coding sequence of a rat chaperone protein RIC3 (accession number: NM_001115045.3) was subcloned into a pcDNA3.1/Hygro (+) vector (Life Technologies). The resulting constructs were transfected into HEK293 cells (ATCC number: CRL-1573) by an electroporation method using Neon (Life Technologies).
The transiently expressing cells obtained in the manner described above were seeded at a density of 8×10^3 cells/well onto a 384-well plate (Becton Dickinson) and allowed to stand overnight at 37° C. DMEM+10% FBS was used as a medium.
On the next day, the medium was removed, and Fluo4-AM (Dojindo) prepared using an assay buffer was applied, followed by allowing to stand for 1 hour. The test drug was dissolved in DMSO and then made to a final concentration of 0.03 to 100 μM (3-fold dilutions) with an assay buffer. Similarly, PNU-120596 which is a known PAM was made to a final concentration of 0.003 to 10 μM (3-fold dilutions). PNU-282987 which is an agonist was made to a final concentration of 0.6 μM. Thereafter, the test drug was applied to the cells using a FLIPR tetra, the agonist (PNU-282987) was added 5 minutes later, and the fluorescence intensity at that time was detected.
As a control, using (1) a group with neither addition of a test drug, PAM (PNU-120596) nor that of agonist (PNU-282987), the response thereof was set to 0%. Using (2) a group with the addition of PAM (PNU-120596) and agonist (PNU-282987), the maximum response thereof was set to 100%.
To quantitatively compare the PAM activity of the test drug, an EC20 value and a Max value were used as activity indicators. […] The EC20 value was calculated using a non-linear regression analysis from the concentration-response curve of a human α7 nACh receptor with the addition of a test drug. The Max value refers to a maximum response value. The Max value is expressed in terms of % value of the maximum response of a test drug in the presence of an agonist (PNU-282987) relative to when the maximum response of PAM (PNU-120596) in the presence of an agonist (PNU-282987) is set to 100%.

human α7 nACh receptor [2] = molecular target: T1, human α7 nACh receptor; assay: Electrophysiological evaluation for human α7 nACh receptor (Qpatch HTX or Qube current response); type: cell-based; parameters: key: positive: an inward current response specific to a human α7 nACh receptor was obtained when 3 μM of a test drug had been added; negative: a specific current response was not observed; conditions: 3 μM test drug added simultaneously with 100 μM AChCl; voltage-clamped at −90 mV
Experimental: The PAM activity of a test drug was evaluated by a current response in the presence of an α7 nACh receptor agonist Acetylcholine chloride (Sigma) (hereinafter, also referred to as AChCl) using Qpatch HTX (Biolin Scientific) or Qube (Biolin Scientific). This test cannot detect a small current response of AChCl alone. The current response can be detected only in the case where the test drug has a PAM activity.
Extracellular fluid (pH 7.4): NaCl 145 mM, KCl 4 mM, HEPES 10 mM, CaCl2 2 mM, MgCl2 1 mM.
Intracellular fluid (pH 7.2): KF 120 mM, KCl 20 mM, EGTA 0.1 mM, HEPES 10 mM, MgCl2 2 mM.
The cells were obtained in the same manner as in Test Example 1.
The response of a human α7 nACh receptor with the addition of a test drug was measured by the following experiment. Transient expression cells obtained by the method described above were subjected to the experiment after allowing to stand overnight at 37° C. The test drug was dissolved in DMSO, and then made to a final concentration of 3 μM using extracellular fluid. The agonist AChCl was made to a final concentration of 100 μM. The membrane potential was voltage-clamped at −90 mV. The current response was measured by multi-hole mode at the time of simultaneous addition of the test drug and AChCl to the cells, using QPatch HTX or Qube.
As a result of the tests above, the case where an inward current response specific to a human α7 nACh receptor was obtained when 3 μM of a test drug had been added was determined as positive, and the case where a specific current response was not observed was determined as negative. It should be noted that, when the agonist concentration is 0, the current response was not observed even with the addition of a test drug.

T1 sequence (P36544 23-502): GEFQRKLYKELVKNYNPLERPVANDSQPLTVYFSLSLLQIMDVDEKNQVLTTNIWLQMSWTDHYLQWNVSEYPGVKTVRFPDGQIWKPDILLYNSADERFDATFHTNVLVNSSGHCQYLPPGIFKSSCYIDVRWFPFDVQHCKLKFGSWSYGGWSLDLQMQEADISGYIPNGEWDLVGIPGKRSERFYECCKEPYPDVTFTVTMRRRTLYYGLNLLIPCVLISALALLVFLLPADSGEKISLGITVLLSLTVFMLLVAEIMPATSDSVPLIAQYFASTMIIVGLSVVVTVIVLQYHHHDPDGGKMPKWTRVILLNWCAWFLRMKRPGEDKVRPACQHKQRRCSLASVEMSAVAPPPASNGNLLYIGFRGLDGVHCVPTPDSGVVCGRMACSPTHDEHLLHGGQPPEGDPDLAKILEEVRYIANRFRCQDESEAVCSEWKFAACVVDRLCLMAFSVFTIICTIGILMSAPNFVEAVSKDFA

`O=C(Nc1cccnn1)c1cc(N2CCC[C@H](C(F)(F)F)C2)nc2c1CCOCC2` [Ex 1, N-(pyridazin-3-yl)-2-[(3S)-3-(trifluoromethyl)piperidin-1-yl]-5,6,8,9-tetrahydrooxepino[4,5-b]pyridine-4-carboxamide fumarate] showed a Max (human α7 nACh receptor [1]) of 99.8% and an EC20 (human α7 nACh receptor [1]) of 2.72 µM.

Work on `CC1(C)CN(c2cc(C(=O)Nc3cccnn3)c3c(n2)CCOCC3)CC(C)(C)O1` [Ex 9, N-(pyridazin-3-yl)-2-(2,2,6,6-tetramethylmorpholin-4-yl)-5,6,8,9-tetrahydrooxepino[4,5-b]pyridine-4-carboxamide hydrochloride] yielded a Max (human α7 nACh receptor [1]) of 69.3% and an EC20 (human α7 nACh receptor [1]) of 3.52 µM.

With `O=C(N[C@H]1CN2CCC1CC2)c1ccc(Cl)cc1` [PNU-282987, N-(3R)-1-azabicyclo[2.2.2]octo-3-yl-4-chlorobenz amide, reference compound] the “calcium response, substance alone” value (human α7 nACh receptor [1]; agonist alone or test compound alone) was “not elicited”.

With `C[C@H]1CCCCN1c1cc(C(=O)Nc2cccnn2)c2c(n1)CCOCC2` [Ex 69, 2-[(2S)-2-methylpiperidin-1-yl]-N-(pyridazin-3-yl)-5,6,8,9-tetrahydrooxepino[4,5-b]pyridine-4-carboxamide hydrochloride] the “Dat. 1 (Determination)” value (human α7 nACh receptor [2]) was “positive”.

`CO[C@H]1CCN(c2cc(C(=O)Nc3cccc(C#N)c3)c3c(n2)CCOCC3)C1` [Ex 48, N-(3-cyanophenyl)-2-[(3S)-3-methoxypyrrolidin-1-yl]-5,6,8,9-tetrahydrooxepino[4,5-b]pyridine-4-carboxamide hydrochloride] was tested, and the “Dat. 1 (Determination)” value (human α7 nACh receptor [2]) was “positive”.

With `O=C(Nc1cccnn1)c1cc(N2CCC(F)CC2)nc2c1CCOCC2` [Ex 50] the “Dat. 1 (Determination)” value (human α7 nACh receptor [2]) was “positive”.

In the case of `Cc1ncc(NC(=O)c2cc(N3CCC[C@H]3C)nc3c2CCOCC3)nc1C` [Ex 46], the “Dat. 1 (Determination)” value (human α7 nACh receptor [2]) is reported as “positive”.

For `Cc1ncc(NC(=O)c2cc(N3CCC[C@@H]3C)nc3c2CCOCC3)nc1C` [Ex 55], the “Dat. 1 (Determination)” value (human α7 nACh receptor [2]) was “positive”.

For `COc1ccc(NC(=O)c2cc(N3CCC[C@H]3C)nc3c2CCOCC3)nn1` [Ex 36], the “Dat. 1 (Determination)” value (human α7 nACh receptor [2]) was “positive”.

Molecule `C[C@@H]1CN(c2cc(C(=O)Nc3ccc(F)cn3)c3c(n2)CCOCC3)C[C@H](C)O1` [Ex 12, 2-[(2R,6S)-2,6-dimethylmorpholin-4-yl]-N-(5-fluoropyridin-2-yl)-5,6,8,9-tetrahydrooxepino[4,5-b]pyridine-4-carboxamide] has a Max (human α7 nACh receptor [1]) of 96.9% and an EC20 (human α7 nACh receptor [1]) of 4.35 µM.

With `O=C(Nc1ccc(Cl)cn1)c1cc(N2CCC[C@H](F)C2)nc2c1CCOCC2` [Ex 76, N-(5-chloropyridin-2-yl)-2-[(3S)-3-fluoropiperidin-1-yl]-5,6,8,9-tetrahydrooxepino[4,5-b]pyridine-4-carboxamide benzenesulfonate] the “Dat. 1 (Determination)” value (human α7 nACh receptor [2]) was “positive”.

`C[C@H]1CCCCN1c1cc(C(=O)Nc2cnccn2)c2c(n1)CCOCC2` [Ex 70, 2-[(2S)-2-methylpiperidin-1-yl]-N-(pyrazin-2-yl)-5,6,8,9-tetrahydrooxepino[4,5-b]pyridine-4-carboxamide hydrochloride] was tested, and the “Dat. 1 (Determination)” value (human α7 nACh receptor [2]) was “positive”.

With `Cc1cncc(NC(=O)c2cc(N3CCC[C@@H]3C)nc3c2CCOCC3)n1` [Ex 40, N-(6-methylpyrazin-2-yl)-2-[(2S)-2-methylpyrrolidin-1-yl]-5,6,8,9-tetrahydrooxepino[4,5-b]pyridine-4-carboxamide hydrochloride] the “Dat. 1 (Determination)” value (human α7 nACh receptor [2]) was “positive”.

Molecule `O=C(Nc1cccnn1)c1cc(N2CCC[C@@H](C(F)(F)F)C2)nc2c1CCOCC2` [Ex 7, N-(pyridazin-3-yl)-2-[(3R)-3-(trifluoromethyl)piperidin-1-yl]-5,6,8,9-tetrahydrooxepino[4,5-b]pyridine-4-carboxamide fumarate] has a Max (human α7 nACh receptor [1]) of 94.8% and an EC20 (human α7 nACh receptor [1]) of 0.512 µM.

For `C[C@@H]1CN(c2cc(C(=O)Nc3ccc(Cl)cn3)c3c(n2)CCOCC3)C[C@H](C)O1` [Ex 18, N-(5-chloropyridin-2-yl)-2-[(2R,6S)-2,6-dimethylmorpholin-4-yl]-5,6,8,9-tetrahydrooxepino[4,5-b]pyridine-4-carboxamide hydrochloride], the Max (human α7 nACh receptor [1]) was 79.2%, the EC20 (human α7 nACh receptor [1]) was 1.02 µM and the “Dat. 1 (Determination)” value (human α7 nACh receptor [2]) was “positive”.

With `O=C(Nc1ccc(Cl)cn1)c1cc(N2CCC(F)CC2)nc2c1CCOCC2` [Ex 51, N-(5-chloropyridin-2-yl)-2-(4-fluoropiperidin-1-yl)-5,6,8,9-tetrahydrooxepino[4,5-b]pyridine-4-carboxamide] the “Dat. 1 (Determination)” value (human α7 nACh receptor [2]) was “positive”.
